Laboratory results published in patent US11497717B2, “Nanoparticles for use for treating a neuronal disorder” (NANOBIOTIX S.A., priority 2017, dated 2022).

Assays:
[1] = tested on: amyloid beta 1-42 (Abeta 1-42)-induced model of Alzheimer's disease in frontal cortex cultures of mouse neurons; assay: Rescue of amyloid beta 1-42-induced functional effects on neuronal networks, phenotypic MEA screening (Example 8); type: cell-based
[2] = tested on: MPP^+-treated mouse ventral midbrain/cortex co-cultures; assay: Prevention/rescue efficacy on MPP+-induced neuronal networks, phenotypic MEA screening (Example 7); type: cell-based
Experimental: The prevention/rescue efficacy of nanoparticles of the invention was tested on MPP^+-treated mouse ventral midbrain/cortex co-cultures, cultured on a 48-wells MEA for 3 weeks. This model represents an in vitro Parkinson's model for screening compounds, based on the functional rescue of dopaminergic neurons using challenged midbrain/cortex cultures growing on MEAs. Midbrain is a region of the brain including the substantia nigra which is part of the basal ganglia and which contains most of the dopaminergic neurons. The evaluation of the nanoparticles' prevention/rescue effect was performed via the measurement of the extracellular electrical activity of the co-culture of neurons plated on Microelectrode Array (MEA) chips. […]
Midbrain and frontal cortex tissue was harvested from embryonic day 14.5 chr:NMRI mice (Charles River). […] Tissue was dissociated by enzymatic digestion (133.3 Kunitz units/ml DNase; 10 Units/ml Papain) and mechanical trituration, counted, vitality controlled, and plated in a 20 μl drop of DMEM containing laminin (10 μg/ml), 10% fetal bovine serum and 10% horse serum on MEAs. Cultures on MEAs were incubated at 37° C. in a 10% CO2 atmosphere until ready for use. […]
At day 21, 120 minutes of neuronal activity were recorded, and 30 minutes of stable activity were analyzed (FIG. 6). […]
Each unit represents the activity originating from one neuron recorded at one electrode. […]

Molecule	Effect Score ([1]; Abeta 1-42 100 nM at T0, nanoparticles (800 μM; [BaTiO3]=2000 μM) or donepezil 300 nM at T0+4 h, Control=0, Abeta group=1, 15 of 204 parameters)	Rescue efficacy ([1]; same treatment as Effect Score, Control set at 100%, Abeta group 0%)	Effect Score ([2]; nanoparticles ([Au] or [Si]=800 μM; [BaTiO3]=2000 μM) or GDNF 20 ng/ml at day 7, MPP+ 20 μM at day 8, recording at day 21, Control=0, MPP+ group=1, 18 of 204 parameters)	Prevention/rescue efficacy ([2]; same treatment as Effect Score, Control set at 100%, MPP+ group 0%)
COc1cc2c(cc1OC)C(=O)C(CC1CCN(Cc3ccccc3)CC1)C2 (stereo not shown) [Donepezil, donepezil]	0.46	54%	–	–
GDNF: glial cell-derived neurotrophic factor, neuroprotector used as reference (protein, UniProt P39905 78-211, looked up) Glial cell line-derived …: SPDKQMAVLPRRERNRQAAAANPENSRGKGRRGQRGKNRGCVLTAIHLNVTDLGLGYETKEELIFRYCSGSCDAAETTYDKILKNLSRNRRLVSDKVGQACCRPIAFDDDLSFLDDNLVYHILRKHSAKRCGCI	–	–	0.44	56%
